Test results as given in ChEMBL document CHEMBL4354853, “Design, Synthesis, and Biological Evaluation of Imidazo[1,2-a]pyridine Derivatives as Novel PI3K/mTOR Dual Inhibitors” (J Med Chem, 2020).

How the values were obtained:
[1] = Half life in Sprague-Dawley rat at 5 mg/kg, po by LC-MS/MS analysis; assay type: ADME, organism-based; conditions: in vivo
[2] = Half life in Sprague-Dawley rat at 1 mg/kg, iv by LC-MS/MS analysis; assay type: ADME, organism-based; conditions: in vivo
[3] = Clearance in Sprague-Dawley rat at 1 mg/kg, iv by LC-MS/MS analysis; assay type: ADME, organism-based; conditions: in vivo
[4] = AUC (0 to infinity) in Sprague-Dawley rat at 5 mg/kg, po by LC-MS/MS analysis; assay type: ADME, organism-based; parameters: dose 5 mg/kg, route oral, time infinity; conditions: in vivo
[5] = Volume of distribution at steady state in Sprague-Dawley rat at 1 mg/kg, iv by LC-MS/MS analysis; assay type: ADME, organism-based; conditions: in vivo, read-out: Vdss
[6] = AUC (0 to infinity) in Sprague-Dawley rat at 1 mg/kg, iv by LC-MS/MS analysis; assay type: ADME, organism-based; parameters: dose 1 mg/kg, time infinity, route intravenous; conditions: in vivo
[7] = Drug level in tumor of nude BALB/c mouse xenografted with human HCT116 cells at 20 mg/kg, po administered as single dose measured after 48 hrs by LC-MS/MS analysis; assay type: ADME, organism-based, Neoplasm; conditions: read-out: Drug uptake
[8] = Cmax in Sprague-Dawley rat at 5 mg/kg, po by LC-MS/MS analysis; assay type: ADME, organism-based; parameters: dose 5 mg/kg, route oral; conditions: in vivo
[9] = Oral bioavailability in Sprague-Dawley rat at 5 mg/kg by LC-MS/MS analysis; assay type: ADME, organism-based; conditions: in vivo

half-life [1]: 7.94 h
half-life [2]: 4.71 h
clearance [3]: 5.66 mL/min/kg
AUC(0-inf) [4]: 3960 ng·h/mL
Vd [5]: 0.69 L/kg
AUC(0-inf) [6]: 2960 ng·h/mL
concentration at 48 h [7]: 600 nM
Cmax [8]: 553 ng/mL
bioavailability [9]: 26.8%
SMILES: COc1ncc(-c2ccc3ncc(-c4nnc(CCN5CCN(C)CC5)o4)n3c2)cc1NS(=O)(=O)c1ccc(F)cc1F
